Measurements published in ChEMBL document CHEMBL1141254, “Daphnimacropodines A-D, alkaloids from Daphniphyllum macropodum” (J Nat Prod, 2007).
Calls of active or inactive are those of the source.

Assays:
Assay type in all cases: functional, cell-based
Platelet [1] = assay: Inhibition of PAF-induced platelet aggregation
Platelet [2] = assay: Inhibition of ADP-induced platelet aggregation
Platelet [3] = assay: Inhibition of AA-induced platelet aggregation

Measured: Activity

C[C@@H]1CN2C(=O)CC[C@@]34C5=CCC[C@@H]5CCC5[C@H](O)OC[C@]53CC[C@H]1[C@H]24 (some centres not stated)
inactive: all assays above

C[C@@H]1CN(C=O)[C@H]2[C@@H]1CC[C@@]1(CO)C(=O)CC[C@H]3CCC=C3[C@@]21CCC(=O)O
inactive: all assays above

COC(=O)CC[C@@]12C3=CCC[C@@H]3CC[C@@H]3CN4C[C@@H](C)C(CC[C@@]31CO)C42 (some centres not stated)
inactive: all assays above

C[C@@H]1CN(C=O)[C@H]2[C@@H]1CC[C@]13COC(=O)CC[C@]21C1=CCC[C@@H]1CCC3=O
inactive: all assays above
